Data from US9724448B2, “Materials for gastrointestinal obstruction prevention” (3-D MATRIX, LTD., priority 2013, dated 2017).
Read-outs that look alike come from different tables or passages of the source.

Legend:
Format in all cases: in vivo, human
[1] = tested on: ESD-induced ulcer (esophageal, gastric, colorectal ESD)
Method: Testing was performed in human subjects in order to determine the ability of disclosed peptides to prevent gastrointestinal obstruction. Subjects who underwent esophageal, gastric, and colorectal endoscopic submucosal dissection (ESD) by nine endoscopists participated in the testing. Subjects receiving antithrombotic therapy were included in the study, but such medications were no longer being administered prior to the procedures. Cases with perforation and coagulopathy (international normalized ratio (INR)>3) despite anticoaculation management after heparin bridge therapy (HBT) were excluded. […] After the ESD procedure, a self-assembling peptide was administered to a target area in the subject. […] For every 1 cm^2 of tumor, 1 mL of self-assembling peptide RADA16, in the form of PuraMatrix™ peptide hydrogel by 3-D Matrix, LTD. (2.5 w/v percent) was applied to the ESD-induced ulcer using a catheter immediately after the procedure. A single dose proton pump inhibitor was administered in gastric ESD cases for 8 weeks beginning the morning of the procedure. Gastric ulcer stages were evaluated by endoscopy as active, healing or scarring at 1, 4, and 8 weeks after ESDs, and application of the self-assembling peptide. The primary endpoint was the rate of post-ESD bleeding. The secondary endpoints include the transitional rate to healing and scarring stages of gastric ESD-induced ulcers. Of the 117 subjects recruited, 114 patients with 124 lesions (esophagus 18; stomach 42; colorectum 64) were enrolled for outcome analysis and […] were excluded due to perforations and […].

[2] = tested on: gastric ESD-induced ulcers; experiment: Gastric ulcer stage by endoscopy (active, healing, scarring) after ESD and peptide application
Method: After the ESD procedure, a self-assembling peptide was administered to a target area in the subject. […] For every 1 cm^2 of tumor, 1 mL of self-assembling peptide RADA16, in the form of PuraMatrix™ peptide hydrogel by 3-D Matrix, LTD. (2.5 w/v percent) was applied to the ESD-induced ulcer using a catheter immediately after the procedure. A single dose proton pump inhibitor was administered in gastric ESD cases for 8 weeks beginning the morning of the procedure. Gastric ulcer stages were evaluated by endoscopy as active, healing or scarring at 1, 4, and 8 weeks after ESDs, and application of the self-assembling peptide. The primary endpoint was the rate of post-ESD bleeding. The secondary endpoints include the transitional rate to healing and scarring stages of gastric ESD-induced ulcers.

[3] = tested on: artificial ulcer after ESD of early-stage esophageal cancer; experiment: Stenosis prevention after endoscopic resection of esophageal cancer (artificial ulcer, 4/5 circumferential spread)
Method: Testing was performed on a subject having an ulcer (lesion) after an endoscopic resection of esophageal cancer. […] Endoscopic submucosal dissection was performed, which created an ulcer. […] A ⅘ circumferential spread may cause stenosis in the absence of applying a peptide solution to form a hydrogel. After confirming that there was no hemorrhaging in the artificial ulcer surface after an endoscopic resection, a catheter was passed through an endoscope, and a peptide solution such as PuraMatrix™ peptide hydrogel by 3-D Matrix, LTD. (2.5%, suitable dose (1 mL per 1 cm^2)) in a syringe was coated evenly over the ulcer surface. […] On the first week after surgery, an endoscope is used to review the area. At this time, as with the initial round, the peptide solution is coated evenly over the ulcer surface. For past cases, an endoscope was used to perform a third and fourth review of the area, in the fourth and eighth weeks, respectively, after surgery that induced stenosis, to judge the effectiveness of the peptide solution coating. […] The endoscope passage is possible in stenosis direction.

## Arg-Ala-Asp-Ala-Arg-Ala-Asp-Ala-Arg-Ala-Asp-Ala-Arg-Ala-Asp-Ala [PuraMatrix]
[1]; all lesions (2/124), 2.5 w/v percent, 1 mL per 1 cm^2, by catheter immediately after ESD
  rate of post-ESD bleeding: 1.6%
[1]; colorectum (1/64; 0.02% to 1.6%)
  rate of post-ESD bleeding: 1.6%
[1]; esophagus
  rate of post-ESD bleeding: 0%
[1]; in vivo
  adverse effects related with the use of the self-assembling peptide: no adverse effects
[1]; stomach (1/43; 95% confidence interval 0.04% to 12.3%)
  rate of post-ESD bleeding: 2.4%
[2]; at 1 week after ESD, with proton pump inhibitor
  Transitional rate to healing stage: 98%
[2]; at 4 weeks after ESD
  scarring stage at follow up endoscopy: 21%
[2]; at 8 weeks after ESD
  scarring stage at follow up endoscopy: 97%
[3]; 4 weeks after surgery
  endoscope passage in stenosis direction: possible
[3]; 4 weeks after surgery, 2.5%, 1 mL per 1 cm^2, coated at surgery and at first week
  ulcer state by endoscope: scarring
[3]; 8 weeks after surgery
  endoscope passage in stenosis direction: possible
[3]; one subject, esophageal ESD
  side effects of the endoscopic resection (delayed hemorrhaging, perforations): no delayed hemorrhaging or perforations
